Test system: MV-4-11 cells
Test: Gene expression microarray analysis (Affymetrix PrimeView) and GSEA
Assay type: cell-based, human
Set-up: RFU PODN (11730768_x_at) / Fold change /veh PODN (11730768_x_at) / RFU LINC00158 (11744669_a_at) / Fold change /veh LINC00158 (11744669_a_at) / RFU DUSP10 (11751237_a_at) / Fold change /veh DUSP10 (11751237_a_at) / RFU ID3 (11757404_x_at) / Fold change /veh ID3 (11757404_x_at) / RFU PLEKHG5 (11737974_s_at) / Fold change /veh PLEKHG5 (11737974_s_at) / RFU LRRC4B (11730491_at) / Fold change /veh LRRC4B (11730491_at) / RFU GIMAP4 (11747438_a_at) / Fold change /veh GIMAP4 (11747438_a_at) / RFU KRT8 (11758183_x_at) / Fold change /veh KRT8 (11758183_x_at) / RFU CNN1 (11734310_a_at) / Fold change /veh CNN1 (11734310_a_at) / RFU VPS37D (11726825_at) / Fold change /veh VPS37D (11726825_at) / RFU C10orf10 (11716522_x_at) / Fold change /veh C10orf10 (11716522_x_at) / RFU KIR2DL2 /// KIR2DL4 /// KIR2DL5A /// KIR2DL5B /// KIR2DS1 /// KIR2DS2 /// KIR2DS3 /// KIR2DS4 /// KIR3DL3 /// KIR3DL3 /// KIR3DS1 (11738374_at) / Fold change /veh KIR2DL2 /// KIR2DL4 /// KIR2DL5A /// KIR2DL5B /// KIR2DS1 /// KIR2DS2 /// KIR2DS3 /// KIR2DS4 /// KIR3DL3 /// KIR3DL3 /// KIR3DS1 (11738374_at) / RFU C1QL1 (11718748_at) / Fold change /veh C1QL1 (11718748_at) / RFU TMPRSS4 (11747572_a_at) / Fold change /veh TMPRSS4 (11747572_a_at) / RFU HAMP (11756126_x_at) / Fold change /veh HAMP (11756126_x_at) / RFU RNFT2 (11725882_a_at) / Fold change /veh RNFT2 (11725882_a_at) / RFU NR4A2 (11747474_a_at) / Fold change /veh NR4A2 (11747474_a_at) / RFU ABCC12 (11746883_a_at) / Fold change /veh ABCC12 (11746883_a_at) / RFU TMEM136 (11760407_x_at) / Fold change /veh TMEM136 (11760407_x_at) / RFU CLDN22 /// WWC2 (11732394_at) / Fold change /veh CLDN22 /// WWC2 (11732394_at) / RFU HLA-DPB1 (11760878_x_at) / Fold change /veh HLA-DPB1 (11760878_x_at) / RFU SPINT1 (11716480_a_at) / Fold change /veh SPINT1 (11716480_a_at) / RFU GAP43 (11754022_s_at) / Fold change /veh GAP43 (11754022_s_at) / RFU A4GNT (11735810_at) / Fold change /veh A4GNT (11735810_at) / RFU PRB3 (11715151_x_at) / Fold change /veh PRB3 (11715151_x_at) / RFU TUBB4B (11761932_at) / Fold change /veh TUBB4B (11761932_at) / RFU CAPN14 (11732068_a_at) / Fold change /veh CAPN14 (11732068_a_at) / RFU TMCC2 (11721928_a_at) / Fold change /veh TMCC2 (11721928_a_at) / RFU IRGQ (11745062_a_at) / Fold change /veh IRGQ (11745062_a_at) / RFU FAM174B (11720279_a_at) / Fold change /veh FAM174B (11720279_a_at) / RFU TMPRSS4 (11748680_a_at) / Fold change /veh TMPRSS4 (11748680_a_at) / RFU FAM212B (11763350_a_at) / Fold change /veh FAM212B (11763350_a_at) / RFU PLEKHG5 (11743358_a_at) / Fold change /veh PLEKHG5 (11743358_a_at) / RFU ZSCAN30 (11745921_a_at) / Fold change /veh ZSCAN30 (11745921_a_at) / RFU CMKLR1 (11741424_a_at) / Fold change /veh CMKLR1 (11741424_a_at) / RFU LOC101060620 /// MAPK8IP1 (11723275_at) / Fold change /veh LOC101060620 /// MAPK8IP1 (11723275_at) / RFU SPTSSB (11747773_x_at) / Fold change /veh SPTSSB (11747773_x_at) / RFU PRSS12 (11739890_at) / Fold change /veh PRSS12 (11739890_at) / RFU BIN1 (11741810_x_at) / Fold change /veh BIN1 (11741810_x_at) / RFU WNT11 (11732464_a_at) / Fold change /veh WNT11 (11732464_a_at) / RFU C10orf10 (11716521_a_at) / Fold change /veh C10orf10 (11716521_a_at) / RFU C5orf56 (11738089_at) / Fold change /veh C5orf56 (11738089_at) / RFU CYB561 (11721691_x_at) / Fold change /veh CYB561 (11721691_x_at) / RFU ANKRD19P (11752326_a_at) / Fold change /veh ANKRD19P (11752326_a_at) / RFU OR2T12 /// OR2T33 /// OR2T8 (11738714_s_at) / Fold change /veh OR2T12 /// OR2T33 /// OR2T8 (11738714_s_at) / RFU VCAN (11748164_a_at) / Fold change /veh VCAN (11748164_a_at) / RFU JSRP1 (11732532_at) / Fold change /veh JSRP1 (11732532_at) / RFU KRTAP10-11 (11738290_x_at) / Fold change /veh KRTAP10-11 (11738290_x_at) / RFU MYO3A (11730013_a_at) / Fold change /veh MYO3A (11730013_a_at) / RFU EBF3 (11725865_a_at) / Fold change /veh EBF3 (11725865_a_at) / RFU CAMK2N1 (11719241_x_at) / Fold change /veh CAMK2N1 (11719241_x_at) / RFU C5orf56 (11738088_a_at) / Fold change /veh C5orf56 (11738088_a_at) / RFU OLFML3 (11715873_a_at) / Fold change /veh OLFML3 (11715873_a_at) / RFU LOC100653217 /// NTM (11731650_a_at) / Fold change /veh LOC100653217 /// NTM (11731650_a_at) / RFU MAPK11 (11762145_a_at) / Fold change /veh MAPK11 (11762145_a_at) / RFU FIZ1 (11724087_x_at) / Fold change /veh FIZ1 (11724087_x_at) / RFU OASL (11726364_x_at) / Fold change /veh OASL (11726364_x_at) / RFU SOX15 (11748057_x_at) / Fold change /veh SOX15 (11748057_x_at) / RFU CD79A (11719716_a_at) / Fold change /veh CD79A (11719716_a_at) / RFU HIST1H1D (11736915_at) / Fold change /veh HIST1H1D (11736915_at) / RFU CASKIN2 (11723855_a_at) / Fold change /veh CASKIN2 (11723855_a_at) / RFU LOC730098 (11760151_x_at) / Fold change /veh LOC730098 (11760151_x_at) / RFU OR4N2 (11742367_at) / Fold change /veh OR4N2 (11742367_at) / RFU PRRT2 (11749266_a_at) / Fold change /veh PRRT2 (11749266_a_at) / RFU SNX32 (11753110_a_at) / Fold change /veh SNX32 (11753110_a_at) / RFU CDHR5 (11726645_a_at) / Fold change /veh CDHR5 (11726645_a_at) / RFU RCAN1 (11760418_a_at) / Fold change /veh RCAN1 (11760418_a_at) / RFU FAM167A (11723789_a_at) / Fold change /veh FAM167A (11723789_a_at) / RFU FAM26E (11764081_at) / Fold change /veh FAM26E (11764081_at) / RFU ISYNA1 (11749810_s_at) / Fold change /veh ISYNA1 (11749810_s_at) / RFU ACY1 (11761880_at) / Fold change /veh ACY1 (11761880_at) / RFU 11764098_at / Fold change /veh 11764098_at / RFU SAMD14 (11745864_x_at) / Fold change /veh SAMD14 (11745864_x_at) / RFU NPB (11741838_a_at) / Fold change /veh NPB (11741838_a_at) / RFU TMPRSS6 (11731388_a_at) / Fold change /veh TMPRSS6 (11731388_a_at) / RFU KRTAP10-2 (11738614_at) / Fold change /veh KRTAP10-2 (11738614_at) / RFU ARHGAP8 /// PRR5-ARHGAP8 (11727945_x_at) / Fold change /veh ARHGAP8 /// PRR5-ARHGAP8 (11727945_x_at) / RFU KRTAP5-7 /// NADSYN1 (11734609_at) / Fold change /veh KRTAP5-7 /// NADSYN1 (11734609_at) / RFU RASL12 (11751679_a_at) / Fold change /veh RASL12 (11751679_a_at) / RFU CDKN2B (11736163_a_at) / Fold change /veh CDKN2B (11736163_a_at) / RFU PRF1 (11729649_at) / Fold change /veh PRF1 (11729649_at) / RFU, ZNF638 /// ZNF638-IT1 / Fold change vs veh, ZNF638 /// ZNF638-IT1 / RFU, PANK3 / Fold change vs veh, PANK3 / RFU, SH3YL1 / Fold change vs veh, SH3YL1 / RFU, ZEB2 / Fold change vs veh, ZEB2 / RFU, NRIP1 / Fold change vs veh, NRIP1 / RFU, PTTG1IP / Fold change vs veh, PTTG1IP / RFU, CAPN2 / Fold change vs veh, CAPN2 / RFU, MED14 / Fold change vs veh, MED14 / RFU, SNORA58 / Fold change vs veh, SNORA58 / RFU, C1orf63 / Fold change vs veh, C1orf63 / RFU, LRRFIP1 / Fold change vs veh, LRRFIP1 / RFU, NDUFAF7 / Fold change vs veh, NDUFAF7 / RFU, SLC12A2 / Fold change vs veh, SLC12A2 / RFU, IBTK / Fold change vs veh, IBTK / RFU, ESF1 / Fold change vs veh, ESF1 / Fold change vs veh, TMEM50B / RFU, TAOK1 / Fold change vs veh, TAOK1 / RFU, ACBD3 / Fold change vs veh, ACBD3 / RFU, TMA16 / Fold change vs veh, TMA16 / RFU, RWDD3 / Fold change vs veh, RWDD3 / RFU, BCAT1 / Fold change vs veh, BCAT1 / RFU, EDEM3 / Fold change vs veh, EDEM3 / RFU, TMEM33 / Fold change vs veh, TMEM33 / RFU, WDR75 / Fold change vs veh, WDR75 / RFU, AHCTF1 / Fold change vs veh, AHCTF1 / RFU, TFRC / Fold change vs veh, TFRC / RFU, ZDHHC17 / Fold change vs veh, ZDHHC17 / RFU, NOM1 / Fold change vs veh, NOM1 / RFU, ARL8B / Fold change vs veh, ARL8B / RFU, ZBTB11 / Fold change vs veh, ZBTB11 / RFU, TAMM41 / Fold change vs veh, TAMM41 / RFU, KIAA1704 /// LOC100996395 / Fold change vs veh, KIAA1704 /// LOC100996395 / RFU, ING1 / Fold change vs veh, ING1 / RFU, TRMT61B / Fold change vs veh, TRMT61B / RFU, FUBP3 / Fold change vs veh, FUBP3 / RFU, TP53 / Fold change vs veh, TP53 / RFU, TNKS2 / Fold change vs veh, TNKS2 / RFU, ZFP14 / Fold change vs veh, ZFP14 / RFU, ACTR2 / Fold change vs veh, ACTR2 / RFU, PPP3R1 / Fold change vs veh, PPP3R1 / RFU, PIK3R1 / Fold change vs veh, PIK3R1 / RFU, HNRNPA1 / Fold change vs veh, HNRNPA1 / RFU, RNF170 / Fold change vs veh, RNF170 / RFU, ZNF28 / Fold change vs veh, ZNF28 / RFU, RNGTT / Fold change vs veh, RNGTT / RFU, OGT / Fold change vs veh, OGT / RFU, BRD1 / Fold change vs veh, BRD1 / RFU, MARS / Fold change vs veh, MARS / RFU, ZNF655 / Fold change vs veh, ZNF655 / RFU, FAHD1 / Fold change vs veh, FAHD1 / RFU, BDP1 / Fold change vs veh, BDP1 / RFU, LRRCC1 / Fold change vs veh, LRRCC1 / RFU, ARID1A / Fold change vs veh, ARID1A / RFU, ZNF146 / Fold change vs veh, ZNF146 / RFU, ZNF330 / Fold change vs veh, ZNF330 / RFU, GPN3 / Fold change vs veh, GPN3 / RFU, C9orf123 / Fold change vs veh, C9orf123 / RFU, N4BP2L2 / Fold change vs veh, N4BP2L2 / RFU, ARFIP1 / Fold change vs veh, ARFIP1 / RFU, FAM179B / Fold change vs veh, FAM179B / RFU, BCL10 / Fold change vs veh, BCL10 / RFU, UHRF1BP1L / Fold change vs veh, UHRF1BP1L / RFU, BET1 / Fold change vs veh, BET1 / RFU, CNOT2 / Fold change vs veh, CNOT2 / RFU, ZNF268 / Fold change vs veh, ZNF268 / Fold change vs veh, ZNF507 / RFU, DGCR2 / Fold change vs veh, DGCR2 / RFU, WDSUB1 / Fold change vs veh, WDSUB1 / Fold change vs veh, HSP90B1 /// MIR3652 / RFU, ADSS / Fold change vs veh, ADSS / RFU, GK / Fold change vs veh, GK / RFU, ZNF148 / Fold change vs veh, ZNF148 / RFU, TAF9 / Fold change vs veh, TAF9 / RFU, SLC1A5 / Fold change vs veh, SLC1A5 / RFU, SLMO2 / Fold change vs veh, SLMO2 / RFU, ABCC4 / Fold change vs veh, ABCC4 / RFU, LOC101060439 /// RAP1B / Fold change vs veh, LOC101060439 /// RAP1B / RFU, RFX7 / Fold change vs veh, RFX7 / RFU, GTPBP10 / Fold change vs veh, GTPBP10 / RFU, CNEP1R1 / Fold change vs veh, CNEP1R1 / RFU, BIVM-ERCC5 /// ERCC5 / Fold change vs veh, BIVM-ERCC5 /// ERCC5 / RFU, ILF3 / Fold change vs veh, ILF3 / RFU 11762660_at / Fold change /veh 11762660_at / RFU VCAN (11757783_s_at) / Fold change /veh VCAN (11757783_s_at) / RFU DDX43 (11728927_at) / Fold change /veh DDX43 (11728927_at) / RFU KRT8 (11758188_x_at) / Fold change /veh KRT8 (11758188_x_at) / RFU NKD1 (11759106_at) / Fold change /veh NKD1 (11759106_at) / RFU SRD5A1 (11742802_a_at) / Fold change /veh SRD5A1 (11742802_a_at) / RFU TPSAB1 /// TPSB2 (11721975_s_at) / Fold change /veh TPSAB1 /// TPSB2 (11721975_s_at) / RFU GSTM3 (11746129_a_at) / Fold change /veh GSTM3 (11746129_a_at) / RFU IL23R (11737362_x_at) / Fold change /veh IL23R (11737362_x_at) / RFU TMEM51 (11727254_a_at) / Fold change /veh TMEM51 (11727254_a_at) / RFU PIWIL2 (11732686_x_at) / Fold change /veh PIWIL2 (11732686_x_at) / RFU ORM1 (11744905_x_at) / Fold change /veh ORM1 (11744905_x_at) / RFU CCDC152 (11743942_at) / Fold change /veh CCDC152 (11743942_at) / RFU ECM1 (11717891_a_at) / Fold change /veh ECM1 (11717891_a_at) / RFU IL23R (11748794_a_at) / Fold change /veh IL23R (11748794_a_at) / RFU TNFAIP8L3 (11732012_x_at) / Fold change /veh TNFAIP8L3 (11732012_x_at) / RFU MBOAT4 (11741988_at) / Fold change /veh MBOAT4 (11741988_at) / RFU 11764193_at / Fold change /veh 11764193_at / RFU TMEM53 (11763286_at) / Fold change /veh TMEM53 (11763286_at) / RFU MAGEB2 (11727129_at) / Fold change /veh MAGEB2 (11727129_at) / RFU TMEM200A (11744735_a_at) / Fold change /veh TMEM200A (11744735_a_at) / RFU CCDC152 (11751479_a_at) / Fold change /veh CCDC152 (11751479_a_at) / RFU FAM211A (11726209_a_at) / Fold change /veh FAM211A (11726209_a_at) / RFU RGS16 (11746705_a_at) / Fold change /veh RGS16 (11746705_a_at) / RFU VCAN (11755009_s_at) / Fold change /veh VCAN (11755009_s_at) / RFU RHOB (11743442_s_at) / Fold change /veh RHOB (11743442_s_at) / RFU RGS16 (11720943_a_at) / Fold change /veh RGS16 (11720943_a_at) / RFU RGS16 (11720944_at) / Fold change /veh RGS16 (11720944_at) / RFU, VPS4B / Fold change vs veh, VPS4B / RFU, CREB1 / Fold change vs veh, CREB1 / RFU, DNAJC13 / Fold change vs veh, DNAJC13 / RFU, GNAQ / Fold change vs veh, GNAQ / RFU, CDK5R1 / Fold change vs veh, CDK5R1 / RFU, ZRANB3 / Fold change vs veh, ZRANB3 / RFU, CUL4A / Fold change vs veh, CUL4A / RFU, CCNY / Fold change vs veh, CCNY / RFU, UFL1 / Fold change vs veh, UFL1 / RFU, COG3 / Fold change vs veh, COG3 / RFU, DIAPH2 / Fold change vs veh, DIAPH2 / RFU, SKA2 / Fold change vs veh, SKA2 / RFU, AFF3 / Fold change vs veh, AFF3 / RFU, LMF1 / Fold change vs veh, LMF1 / RFU, IPO11 / Fold change vs veh, IPO11 / RFU, DFFB / Fold change vs veh, DFFB / RFU, FOXP1 / Fold change vs veh, FOXP1 / RFU, CARD8 / Fold change vs veh, CARD8 / RFU, STRN3 / Fold change vs veh, STRN3 / RFU, ADK / Fold change vs veh, ADK / RFU, RASSF2 / Fold change vs veh, RASSF2 / RFU, WIPF1 / Fold change vs veh, WIPF1 / RFU, LARP1B / Fold change vs veh, LARP1B / RFU, RASA1 / Fold change vs veh, RASA1 / RFU, RB1 / Fold change vs veh, RB1 / RFU, PPFIA1 / Fold change vs veh, PPFIA1 / RFU, MAT2A / Fold change vs veh, MAT2A / RFU, CCT5 / Fold change vs veh, CCT5 / RFU, WDR92 / Fold change vs veh, WDR92 / RFU, CUX1 / Fold change vs veh, CUX1 / RFU, TTC7A / Fold change vs veh, TTC7A / RFU, TMEM135 / Fold change vs veh, TMEM135 / RFU, DEPTOR / Fold change vs veh, DEPTOR / RFU, CPM / Fold change vs veh, CPM / RFU, DNAJB6 / Fold change vs veh, DNAJB6 / RFU, CACNA2D3 / Fold change vs veh, CACNA2D3 / RFU, DTX4 / Fold change vs veh, DTX4 / RFU, TFCP2 / Fold change vs veh, TFCP2 / RFU, GMCL1 /// GMCL1P1 / Fold change vs veh, GMCL1 /// GMCL1P1 / RFU, AEBP2 / Fold change vs veh, AEBP2 / RFU, SNHG1 /// SNORD22 /// SNORD25 /// SNORD26 /// SNORD27 /// SNORD28 /// SNORD29 /// SNORD31 / Fold change vs veh, SNHG1 /// SNORD22 /// SNORD25 /// SNORD26 /// SNORD27 /// SNORD28 /// SNORD29 /// SNORD31 / Fold change (Aza/veh), C12orf56 (ProbeSet 11735607_a_at) / Fold change (ACY-1035/veh), C12orf56 (ProbeSet 11735607_a_at) / Fold change (Aza/veh), FGFR1OP (ProbeSet 11751329_s_at) / Fold change (ACY-1035/veh), FGFR1OP (ProbeSet 11751329_s_at) / Fold change (Aza/veh), VPS36 (ProbeSet 11739960_a_at) / Fold change (ACY-1035/veh), VPS36 (ProbeSet 11739960_a_at) / RFU SYPL1 (11715823_x_at) / Fold change /veh SYPL1 (11715823_x_at) / RFU IGFBP7 (11715501_s_at) / Fold change /veh IGFBP7 (11715501_s_at) / RFU REEP3 (11722064_at) / Fold change /veh REEP3 (11722064_at) / RFU IGLL1 (11728026_x_at) / Fold change /veh IGLL1 (11728026_x_at): dose or concentration left out as unconfirmed
Conditions: ProbeSet 11732165_x_at; LIST D

For `Nc1ncn([C@@H]2O[C@H](CO)[C@@H](O)[C@H]2O)c(=O)n1` [azacitidine], the “RFU, LMF1” value was 50.31 RFU.
